Experimental data as given in US20260132129A1 (Genesis Therapeutics, Inc., priority 2022, published 2026).

Target: T1, PI3Kα H1047R (T47D cells) (Homo sapiens, UniProt P42336, H1047R)
T1 construct: endogenous in cells; host or cells: T47D cells
Test: PI3Kα cellular assay: pAKT HTRF in T47D cells after EGF stimulation
Assay type: cell-based
Settings: for IC50: T47D cells (PI3Kα H1047R), pAKT S473 HTRF
Experimental: SKBR3 or T47D cells are seeded in DMEM containing 10% FBS at 25k cells/well into 96-well cell culture format. Cells are incubated overnight at 37° C. in a 5% CO2 incubator and the following day cell media is aspirated, adherent cells are washed 1× with room temperature PBS prior to serum-free media application. Cells are returned to 37° C. 5% CO2 incubator and incubated a further 16 hrs. Compounds are added to serum starved adherent cells with a top dose of 10,000 nM and 3× multiple dose reductions for a minimum dose of 0.5 nM diluted in DMSO. Cell/compound incubation continues for 1 hr in a 37° C., 5% CO2 incubator prior to 10 minute PIK3CA stimulation with 20 ng/ml EGF. Cells treated with 0.1% DMSO and 20 ng/mL EGF are employed as negative control, cells treated with 10 uM Alpelisib and 20 ng/mL EGF are employed as a positive control. After 10 mins, plates are removed from incubator and cells are lysed with buffer and shaking 45 minutes. […] 384 well plate is left overnight at room temperature before reading HTRF on an Envision plate reader.
ND denotes value not determined with that assay for the specified compound; • for T47D (H1047R) selectivity over SKBR3 (WT): A denotes >20-fold; B denotes 20-fold≥value>5-fold; C denotes ≤5-fold. ND denotes value not determined with that assay for the specified compound; and • for T47D pAKT lipophilic efficiency (LiPE): A denotes >4; B denotes 4≥value>2; C denotes ≤2. ND denotes value not determined with that assay for the specified compound.

[1] = 1 hr compound, 20 ng/ml EGF 10 min
[2] = selectivity T47D (H1047R) over SKBR3 (WT), pAKT HTRF
[3] = selectivity of T47D (H1047R) over SKBR3 (WT) pAKT IC50

T1 sequence (P42336 whole entry H1047R): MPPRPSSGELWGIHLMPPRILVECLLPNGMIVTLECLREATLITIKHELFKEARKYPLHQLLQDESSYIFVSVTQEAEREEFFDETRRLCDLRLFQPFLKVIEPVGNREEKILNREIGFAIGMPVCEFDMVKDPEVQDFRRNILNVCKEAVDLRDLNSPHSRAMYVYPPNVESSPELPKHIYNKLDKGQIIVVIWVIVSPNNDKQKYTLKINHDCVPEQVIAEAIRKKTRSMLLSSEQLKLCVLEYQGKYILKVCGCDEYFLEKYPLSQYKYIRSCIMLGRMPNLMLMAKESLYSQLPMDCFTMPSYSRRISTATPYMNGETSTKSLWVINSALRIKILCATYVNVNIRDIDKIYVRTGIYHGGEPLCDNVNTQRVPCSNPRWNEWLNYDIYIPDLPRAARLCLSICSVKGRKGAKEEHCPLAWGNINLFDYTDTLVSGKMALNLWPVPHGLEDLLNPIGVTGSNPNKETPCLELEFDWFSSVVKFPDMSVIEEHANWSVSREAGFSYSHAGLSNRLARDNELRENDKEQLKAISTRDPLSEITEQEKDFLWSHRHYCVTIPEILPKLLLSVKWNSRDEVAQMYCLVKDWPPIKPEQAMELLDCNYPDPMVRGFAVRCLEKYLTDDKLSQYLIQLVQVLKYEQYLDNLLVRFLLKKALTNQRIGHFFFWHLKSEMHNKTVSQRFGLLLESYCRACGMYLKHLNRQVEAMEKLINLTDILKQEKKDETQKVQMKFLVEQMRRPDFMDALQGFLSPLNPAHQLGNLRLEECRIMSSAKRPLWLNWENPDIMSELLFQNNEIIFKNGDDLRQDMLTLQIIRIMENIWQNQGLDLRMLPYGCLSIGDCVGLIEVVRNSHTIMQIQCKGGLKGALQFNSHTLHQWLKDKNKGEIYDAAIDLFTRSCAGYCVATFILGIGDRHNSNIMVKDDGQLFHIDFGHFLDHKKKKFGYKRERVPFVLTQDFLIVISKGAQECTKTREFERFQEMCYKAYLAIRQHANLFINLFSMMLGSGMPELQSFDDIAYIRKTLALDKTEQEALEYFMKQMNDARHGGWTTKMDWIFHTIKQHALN
T1 sequence (P27986 whole entry partner): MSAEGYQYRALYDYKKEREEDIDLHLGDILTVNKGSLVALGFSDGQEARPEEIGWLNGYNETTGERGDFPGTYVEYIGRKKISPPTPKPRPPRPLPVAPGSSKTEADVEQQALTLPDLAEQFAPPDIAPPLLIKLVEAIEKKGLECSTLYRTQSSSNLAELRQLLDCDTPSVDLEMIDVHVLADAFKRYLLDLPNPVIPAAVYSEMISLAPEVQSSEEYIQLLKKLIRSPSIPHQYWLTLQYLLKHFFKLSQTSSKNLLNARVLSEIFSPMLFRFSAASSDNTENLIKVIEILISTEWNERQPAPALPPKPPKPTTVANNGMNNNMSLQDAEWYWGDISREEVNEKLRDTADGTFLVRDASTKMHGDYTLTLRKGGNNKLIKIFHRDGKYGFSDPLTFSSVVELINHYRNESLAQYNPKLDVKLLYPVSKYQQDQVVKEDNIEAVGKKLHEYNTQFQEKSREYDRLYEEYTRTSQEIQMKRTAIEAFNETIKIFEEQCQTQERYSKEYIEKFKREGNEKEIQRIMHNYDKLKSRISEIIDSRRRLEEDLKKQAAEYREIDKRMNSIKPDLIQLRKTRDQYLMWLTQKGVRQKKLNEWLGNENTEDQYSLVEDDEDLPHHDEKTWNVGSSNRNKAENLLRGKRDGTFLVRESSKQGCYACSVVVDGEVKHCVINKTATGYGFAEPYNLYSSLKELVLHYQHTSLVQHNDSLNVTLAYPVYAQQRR

| SMILES | IC50 [1] [nM] | T47D pAKT S473 HTRF IC50 (H1047R): T47D (H1047R) selectivity over SKBR3 (WT) [2] | T47D pAKT S473 HTRF IC50 (H1047R): T47D (H1047R) selectivity over SKBR3 (WT) [3] | IC50 (EGF stimulation) [nM] |
| --- | --- | --- | --- | --- |
| Cc1cc([C@@H](C)Nc2ccccc2)c2nc(-c3cc(C)c4oc(=O)[nH]c4c3)cc(=O)n2c1 (single isomer, unassigned) [Compound 29] | > 2000 | C (C denotes ≤5-fold) |  |  |
| Cc1cc([C@H](C)Nc2ccccc2C(=O)O)c2nc(N3Cc4ccccc4C3)cc(=O)n2c1 (single isomer, unassigned) [Compound 393] | < 100 | A (A denotes >20-fold) |  |  |
| Cc1cc(C(C)Nc2ccccc2C(=O)O)c2nc(-c3ccc(CN4CCN(C(=O)C5CC5)CC4)c(F)c3)cc(=O)n2c1 (single isomer, unassigned) [Compound 420] | 100 to 500 | A (A denotes >20-fold) |  |  |
| Cc1cc(C(C)Nc2ccccc2C(=O)O)c2nc(-c3ccc(CN4CCN(C(=O)C5CC5)CC4)c(F)c3)cc(=O)n2c1 (single isomer, unassigned) [Compound 421] | > 2000 | C (C denotes ≤5-fold) |  |  |
| Cc1cc([C@@H](C)Nc2ccccc2C(=O)O)c2nc(N3CC[Si](C)(C)CC3)cc(=O)n2c1 (single isomer, unassigned) [Compound 431] | < 100 | A (A denotes >20-fold) |  |  |
| Cc1cc([C@@H](C)Nc2ccccc2C(=O)O)c2nc(N3C[C@H](C)C[C@H](C)C3)cc(=O)n2c1 (single isomer, unassigned) [Compound 512] | < 100 | A (A denotes >20-fold) |  |  |
| Cc1cc([C@@H](C)Nc2ccccc2C(=O)O)c2nc(N3C[C@@H]4CC(F)(F)C[C@@H]4C3)cc(=O)n2c1 (single isomer, unassigned) [Compound 582] | > 2000 | C (C denotes ≤5-fold) |  |  |
| Cc1cc([C@H](C)Nc2ccccc2C(=O)O)c2nc(N3C[C@@H]4CC(F)(F)C[C@@H]4C3)cc(=O)n2c1 (single isomer, unassigned) [Compound 583] | < 100 | A (A denotes >20-fold) |  |  |
| Cc1cc([C@H](C)Nc2ccccc2S(N)(=O)=O)c2nc(N3Cc4ccccc4C3)cc(=O)n2c1 (single isomer, unassigned) [Compound 606] | > 2000 | C (C denotes ≤5-fold) |  |  |
| Cc1cc([C@@H](C)Nc2ccccc2C(N)=O)c2nc(N3Cc4ccccc4C3)cc(=O)n2c1 (single isomer, unassigned) [Compound 620] | < 100 | A (A denotes >20-fold) |  |  |
| Cc1cc([C@@H](C)Nc2ccccc2C(=O)O)c2nc(N3C[C@@H](C)C(F)(F)[C@@H](C)C3)cc(=O)n2c1 (single isomer, unassigned) [Compound 711] |  |  | A (A denotes >20-fold) | < 100 |
| Cc1cc([C@@H](C)Nc2ccccc2S(N)(=O)=O)c2nc(N3C[C@@H](C)O[C@@H](C)C3)cc(=O)n2c1 (single isomer, unassigned) [Compound 730] |  |  | A (A denotes >20-fold) | < 100 |
| Cc1cc([C@@H](C)Nc2ccccc2C(=O)O)c2nc(-c3cnc4c(c3)c(C)c(C)n4C)c(C)c(=O)n2c1 (single isomer, unassigned) [Compound 804] |  |  | A (A denotes >20-fold) | < 100 |
| Cc1cc([C@H](C)Nc2ccccc2-c2ccnnc2)c2nc(N3Cc4ccccc4C3)c(C)c(=O)n2c1 (single isomer, unassigned) [Compound 848] |  |  | A (A denotes >20-fold) | < 100 |
| Cc1cc([C@@H](C)Nc2ccccc2S(N)(=O)=O)c2nc(N3Cc4ccccc4C3)c(C)c(=O)n2c1 (single isomer, unassigned) [Compound 856] |  |  | A (A denotes >20-fold) | < 100 |
| Cc1cc([C@@H](C)Nc2ccccc2C(=O)O)c2nc(-c3ccc(F)c(C#N)c3)c(C)c(=O)n2c1 (single isomer, unassigned) [Compound 947] |  |  | A (A denotes >20-fold) | < 100 |

The remaining lines, values ahead:

| IC50 [1] [nM] | T47D pAKT S473 HTRF IC50 (H1047R): T47D (H1047R) selectivity over SKBR3 (WT) [2] | T47D pAKT S473 HTRF IC50 (H1047R): T47D (H1047R) selectivity over SKBR3 (WT) [3] | IC50 (EGF stimulation) [nM] | SMILES |
| --- | --- | --- | --- | --- |
| > 2000 | C (C denotes ≤5-fold) |  |  | Cc1cc(C(C)Nc2ccccc2C(=O)O)c2nc(-c3ccncc3)cc(=O)n2c1 (single isomer, unassigned) [Compound 268] |
| < 100 | A (A denotes >20-fold) |  |  | Cc1cc(C(C)Nc2ccccc2C(=O)O)c2nc(-c3ccncc3)cc(=O)n2c1 (single isomer, unassigned) [Compound 269] |
| < 100 | A (A denotes >20-fold) |  |  | Cc1cc([C@@H](C)Nc2ccccc2C(=O)O)c2nc(-c3ccc(F)cc3)cc(=O)n2c1 (single isomer, unassigned) [Compound 424] |
| > 2000 | C (C denotes ≤5-fold) |  |  | Cc1cc(C(C)Nc2ccccc2C(N)=O)c2nc(-c3ccncc3)cc(=O)n2c1 (single isomer, unassigned) [Compound 439] |
| 500 to 2000 | B (B denotes 20-fold≥value>5-fold) |  |  | Cc1cc([C@H](C)Nc2ccccc2C(N)=O)c2nc(-c3ccncc3)cc(=O)n2c1 (single isomer, unassigned) [Compound 440] |
| > 2000 | C (C denotes ≤5-fold) |  |  | Cc1cc(C(C)Nc2ccccc2C(=O)O)c2nc(-c3ccc4c(c3)c(N)nn4C)cc(=O)n2c1 (single isomer, unassigned) [Compound 535] |
| < 100 | A (A denotes >20-fold) |  |  | Cc1cc([C@H](C)Nc2ccccc2C(=O)O)c2nc(-c3ccc4c(c3)c(N)nn4C)cc(=O)n2c1 (single isomer, unassigned) [Compound 536] |
| < 100 | A (A denotes >20-fold) |  |  | Cc1cc([C@@H](C)Nc2ccccc2C(=O)O)c2nc(-c3ccc4sc(=O)[nH]c4c3)cc(=O)n2c1 (single isomer, unassigned) [Compound 593] |
|  |  | A (A denotes >20-fold) |  | Cc1cc([C@@H](C)Nc2ccccc2C(=O)O)c2nc(C3Cc4ccccc4[C@@H]3C)cc(=O)n2c1 (single isomer, unassigned) [Compound 652] |
|  |  |  | < 100 | Cc1cc([C@@H](C)Nc2ccccc2C(=O)O)c2nc(N3Cc4ccccc4[C@@H]3C)cc(=O)n2c1 (single isomer, unassigned) [Compound 652] |
|  |  | A (A denotes >20-fold) | < 100 | Cc1cc([C@@H](C)Nc2ccccc2C(=O)O)c2nc(-c3cnc4c(c3)c(C)nn4C)cc(=O)n2c1 (single isomer, unassigned) [Compound 696] |
|  |  | C (C denotes ≤5-fold) | > 2000 | Cc1cc([C@@H](C)Nc2ccccc2C(=O)O)c2nc(-c3ccc4c(c3)c(C)nn4C)cc(=O)n2c1 (single isomer, unassigned) [Compound 739] |
|  |  | A (A denotes >20-fold) | < 100 | Cc1cc([C@H](C)Nc2ccccc2C(=O)O)c2nc(-c3ccc4c(c3)c(C)nn4C)cc(=O)n2c1 (single isomer, unassigned) [Compound 740] |
|  |  | A (A denotes >20-fold) | < 100 | Cc1cc([C@@H](C)Nc2ccccc2C(=O)O)c2nc(-c3ccc4c(c3)c(C)nn4C3CC3)c(C)c(=O)n2c1 (single isomer, unassigned) [Compound 892] |
|  |  | A (A denotes >20-fold) | < 100 | Cc1cc([C@@H](C)Nc2ccccc2C(=O)O)c2nc(-c3ccc4c(c3)c(C)cn4C)c(C)c(=O)n2c1 (single isomer, unassigned) [Compound 902] |
